Source: patent US20090018210A1, “A Method for Promoting Fat Degradation” (YAMAHA HATSUDOKI KABUSHIKI KAISHA, priority 2007, published 2009)

Test system: Human subcutaneous adipocytes
Experiment: Promotion of fat degradation (lipolysis) in human adipocytes, free glycerol in culture supernatant
Assay type: cell-based
Details: 30 μM test substance, 3 hours incubation at 37° C., versus 1% (v/v) DMSO control; Lipolysis Assay Kit; FIG. 1
Protocol: Human subcutaneous adipocytes (Zen-Bio, Inc.) plated onto a 96-well plate was obtained and pre-cultivated under a 5% CO2 atmosphere at 37° C. for 5 days in D-MEM/Ham's F12 Medium (1:1, v/v) containing 3% (v/v) fetal bovine serum, 15 mM HEPES (pH 7.4), 33 μM biotin, 17 μM pantothenate, 100 nM human insulin, 1 μM dexamethasone, 100 U/mL penicillin, 100 μg/mL streptomycin and 0.25 μg/mL amphotericin B. Then, an astaxanthin free form (Wako Pure Chemical Industries, Ltd.: purity 94% or more) and the astaxanthin monoester obtained in Preparation Example 1 were dissolved in dimethyl sulfoxide (DMSO) to prepare stock solutions at a concentration of 3 mM, respectively. The stock solutions were diluted to 30 μM with LIP-2 Assay Buffer (Zen-Bio, Inc.) to prepare test solutions. As a control, 1% (v/v) DMSO solution which was diluted with LIP-2 Assay Buffer was used. Each of the wells was washed with Wash Buffer (Zen-Bio, Inc.) and the test solutions were added to the wells. These wells were incubated under a 5% CO2 atmosphere at 37° C. for 3 hours. After the incubation, the amount of free glycerol in the culture supernatant was measured using a Lipolysis Assay Kit (Zen-Bio, Inc.). […]

CC1=C(/C=C/C(C)=C/C=C/C(C)=C/C=C/C=C(C)/C=C/C=C(C)/C=C/C2=C(C)C(=O)[C@@H](O)CC2(C)C)C(C)(C)C[C@H](O)C1=O [astaxanthin]
percentage of fat degradation promoted, (A/B)×100(%), amount of free glycerol relative to control: significantly increased

astaxanthin monoester
percentage of fat degradation promoted, (A/B)×100(%), amount of free glycerol relative to control: significantly increased
